pEC50: −log10 of the molar value.

This note sets out measurements from patent US9376420B2 (YUHAN CORPORATION, priority 2012, dated 2016).

The test concerns the target T1, human LXRβ (Homo sapiens, UniProt P55055).
T1 construct: expressed in transfected cells; host or cells: HEK293 cells (ATCC CRL-1573), transient transfection with pFA-hLXRβ/GAL4 and pUAS
T1 sequence (P55055 222-460 limits assumed): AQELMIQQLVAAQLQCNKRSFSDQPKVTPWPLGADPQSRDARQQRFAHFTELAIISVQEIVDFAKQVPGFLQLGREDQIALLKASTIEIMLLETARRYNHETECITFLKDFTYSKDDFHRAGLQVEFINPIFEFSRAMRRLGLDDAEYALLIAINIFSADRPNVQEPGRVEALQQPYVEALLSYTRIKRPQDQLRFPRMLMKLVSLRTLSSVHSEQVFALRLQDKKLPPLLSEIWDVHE
In words: Assay for Transcriptional Activity of LXRβ (GAL4-hLXRβ LBD luciferase reporter, transient transfection). It is filed as cell-based. The conditions noted are these: HEK293 cells transfected with pFA-hLXRβ/GAL4 and pUAS, 24 hours; for Emax: fold value in comparison with the control (DMSO-treated group); for pEC50: increase of transcriptional activity of LXRβ, average of three independent tests. In a few lines: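 HEK293 cells transiently co-transfected with GAL4-hLXRβ LBD and 5×GAL4-UAS luciferase reporter, treated 24 h at 37 °C with compounds over 9 points (0.01–50 μM, half-log). Luminescence read after lysis; EC50 from four-parameter fit, mean of three independent tests, with a known LXR agonist as positive control.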
In general terms: In a reporter assay the amount or activity of a reporter protein is the signal.

Compound `Cc1ncccc1-c1ccc(C2CC(C(O)(C(F)(F)F)C(F)(F)F)=NN2c2ccc(F)cc2F)cc1` (stereo not shown) [Example 376, 1-(2,4-difluoro-phenyl)-5-(4-(2-methyl-pyridin-3-yl)-phenyl)-3-[di-(trifluoromethyl)-hydroxy-methyl]-4,5-dihydro-1H-pyrazole] showed an Emax of 39 fold and a pEC50 of 6.49.

`CN(CCCS(=O)(=O)c1cccc(-c2cccc(N3N=C(C(F)(F)C(F)(F)F)CC3c3ccc(F)cc3F)c2)c1)C(=O)OC(C)(C)C` (stereo not shown) [Example 211, 5-(2,4-difluoro-phenyl)-1-{3′-[3-(N-BOC-N-methyl-amino)-propane-1-sulfonyl]-biphenyl-3-yl}-3-pentafluoroethyl-4,5-dihydro-1H-pyrazole]: the Emax worked out at 29 fold and the pEC50 was 6.29.

As for `OC(C1=NN(c2ccccc2Cl)C(c2ccc(-c3cccnc3)cc2)C1)(C(F)(F)F)C(F)(F)F` (stereo not shown) [Example 277, 1-(2-chloro-phenyl)-5-[4-(pyridin-3-yl)-phenyl]-3-[di-(trifluoromethyl)-hydroxy-methyl]-4,5-dihydro-1H-pyrazole], the Emax turned out to be 65 fold and the pEC50 was 6.44.

`CCOc1cccc(-c2ccc(C3CC(C(O)(C(F)(F)F)C(F)(F)F)=NN3c3ccc(F)cc3F)cc2)c1` (stereo not shown) [Example 337, 5-(3′-ethoxy-biphenyl-4-yl)-1-(2,4-difluoro-phenyl)-3-[di-(trifluoromethyl)-hydroxy-methyl]-4,5-dihydro-1H-pyrazole] gave an Emax of 80 fold and a negative-log EC50 (pEC50) of 5.97.

For `N#Cc1ncccc1-c1ccc(C2CC(C(O)(C(F)(F)F)C(F)(F)F)=NN2c2ccc(F)cc2F)cc1` (stereo not shown) [Example 380, 5-[4-(2-cyano-pyridin-3-yl)-phenyl)-1-(2,4-difluoro-phenyl)-3-[di-(trifluoromethyl)-hydroxy-methyl]-4,5-dihydro-1H-pyrazole], the Emax was 38 fold and the negative logarithm of the EC50 (pEC50) was 6.35.

Turning to `CN(C)S(=O)(=O)N1CC=C(c2ccc(C3CC(C(O)(C(F)(F)F)C(F)(F)F)=NN3c3ccc(F)cc3F)cc2)CC1` (stereo not shown) [Example 401, 1-(2,4-difluoro-phenyl)-5-[4-(1-dimethylsulfamoyl-1,2,3,6-tetrahydropyridin-4-yl)-phenyl]-3-[di-(trifluoromethyl)-hydroxy-methyl]-4,5-dihydro-1H-pyrazole], the Emax amounted to 45 fold and the pEC50 is 6.11.

`OC(C1=NN(c2ccccc2Cl)C(c2ccc(-c3ccc(C(F)(F)F)nc3)cc2)C1)(C(F)(F)F)C(F)(F)F` (stereo not shown) [Example 272, 1-(2-chloro-phenyl)-5-[4-(6-trifluoromethyl-pyridin-3-yl)-phenyl]-3-[di-(trifluoromethyl)-hydroxy-methyl]-4,5-dihydro-1H-pyrazole] showed an Emax of 24 fold and a pEC50 of 5.65.

For `O=C(c1ccc(Cl)cc1)N1CC=C(c2cccc(C3CC(C(O)(C(F)(F)F)C(F)(F)F)=NN3c3ccccc3Cl)c2)CC1` (stereo not shown) [Example 237, 5-{3-[1-(4-chloro-benzoyl)-1,2,3,6-tetrahydropyridin-4-yl]-phenyl}-1-(2-chloro-phenyl)-3-[di-(trifluoromethyl)-hydroxy-methyl]-4,5-dihydro-1H-pyrazole], the Emax stood at 81 fold and the pEC50 is 6.92.

Regarding `O=S(=O)(C1CCCCC1)N1CC=C(c2ccc(C3CC(C(O)(C(F)(F)F)C(F)(F)F)=NN3c3ccccc3Cl)cc2)CC1` (stereo not shown) [Example 307, 1-(2-chloro-phenyl)-5-[4-(1-cyclohexanesulfonyl-1,2,3,6-tetrahydropyridin-4-yl)-phenyl]-3-[di-(trifluoromethyl)-hydroxy-methyl]-4,5-dihydro-1H-pyrazole], the Emax is reported as 52 fold and the pEC50 is 5.26.

The compound `CCOC(=O)c1cncc(-c2ccc(C3CC(C(O)(C(F)(F)F)C(F)(F)F)=NN3c3ccc(F)cc3F)cc2)c1` (stereo not shown) [Example 378] had an Emax of 30 fold and a pEC50 of 6.13.

In turn, `CSc1ccc(-c2ccc(C3CC(C(O)(C(F)(F)F)C(F)(F)F)=NN3c3ccccc3Cl)s2)cn1` (stereo not shown) [Example 415, 1-(2-chloro-phenyl)-5-{5-[6-(methylsulfanyl)-pyridin-3-yl]-thiophen-2-yl}-3-[di-(trifluoromethyl)-hydroxy-methyl]-4,5-dihydro-1H-pyrazole] showed an Emax of 100 fold and a pEC50 of 6.46.

Regarding `CN(C)S(=O)(=O)N1CCCN(c2ccc(C3CC(C(O)(C(F)(F)F)C(F)(F)F)=NN3c3ccc(F)cc3F)cc2)CC1` (stereo not shown) [Example 411, 1-(2,4-difluoro-phenyl)-5-[4-(4-dimethylsulfamoyl-homopiperazin-1-yl)-phenyl]-3-[di-(trifluoromethyl)-hydroxy-methyl]-4,5-dihydro-1H-pyrazole], the Emax is 62 fold and the pEC50 is 6.34.

Regarding `CS(=O)(=O)c1ccc(-c2cccc(N3N=C(C(O)(C(F)(F)F)C(F)(F)F)CC3c3ccccc3Cl)c2)cn1` (stereo not shown) [Example 435, 5-(2-chloro-phenyl)-1-{3-[6-(methylsulfonyl)-pyridin-3-yl]-phenyl}-3-[di-(trifluoromethyl)-hydroxy-methyl]-4,5-dihydro-1H-pyrazole], the Emax turned out to be 25 fold and the negative logarithm of the EC50 (pEC50) is 6.02.

Consider `CNCCCS(=O)(=O)c1cccc(-c2cccc(C3CC(C(F)(F)C(F)(F)F)=NN3c3ccc(F)cc3F)c2)c1` (stereo not shown) [Example 89, 1-(2,4-difluoro-phenyl)-5-{3′-[3-(N-methyl-amino)-propane-1-sulfonyl]-biphenyl-3-yl}-3-pentafluoroethyl-4,5-dihydro-1H-pyrazole], for which the Emax came to 106 fold and the negative-log EC50 (pEC50) was 6.42.

For `O=S(=O)(C1CC1)N1CCN(c2ccnc(C3CC(C(F)(F)C(F)(F)F)=NN3c3ccc(F)cc3F)c2)CC1` (stereo not shown) [Example 184, 1-(2,4-difluoro-phenyl)-5-[4-(4-cyclopropanesulfonyl-piperazin-1-yl)-pyridin-2-yl]-3-pentafluoroethyl-4,5-dihydro-1H-pyrazole], the Emax is on record as 81 fold and the negative logarithm of the EC50 (pEC50) is 5.55.

With `OC(C1=NN(c2ccccc2Cl)C(c2ccc(-c3ccoc3)cc2)C1)(C(F)(F)F)C(F)(F)F` (stereo not shown) [Example 257, 1-(2-chloro-phenyl)-5-(4-furan-3-yl-phenyl)-3-[di-(trifluoromethyl)-hydroxy-methyl]-4,5-dihydro-1H-pyrazole], the Emax was 57 fold and the negative logarithm of the EC50 (pEC50) was 5.73.

In the case of `CS(=O)(=O)N1CCN(c2cccc(C3CC(C(F)(F)C(F)(F)F)=NN3c3ccc(F)cc3F)c2)CC1` (stereo not shown) [Example 96, 1-(2,4-difluoro-phenyl)-5-[3-(4-methanesulfonyl-piperazin-1-yl)-phenyl]-3-pentafluoroethyl-4,5-dihydro-1H-pyrazole], the Emax is on record as 67 fold and the negative logarithm of the EC50 (pEC50) is 5.47.

`CN(C)S(=O)(=O)N1CCN(c2ccc(C3CC(C(O)(C(F)(F)F)C(F)(F)F)=NN3c3ccc(F)cc3F)cc2)CC1` (stereo not shown) [Example 407, 1-(2,4-difluoro-phenyl)-5-[4-(4-dimethylsulfamoyl-piperazin-1-yl)-phenyl]-3-[di-(trifluoromethyl)-hydroxy-methyl]-4,5-dihydro-1H-pyrazole] gave an Emax of 58 fold and a negative-log EC50 (pEC50) of 6.14.

`COc1ccc(-c2ccc(C3CC(C(O)(C(F)(F)F)C(F)(F)F)=NN3c3ccccc3Cl)cc2)cc1` (stereo not shown) [Example 242, 1-(2-chloro-phenyl)-5-(4′-methoxy-biphenyl-4-yl)-3-[di-(trifluoromethyl)-hydroxy-methyl]-4,5-dihydro-1H-pyrazole] gave an Emax of 89 fold and a pEC50 of 4.85.

Take `Oc1cccc(-c2ccc(C3CC(C(O)(C(F)(F)F)C(F)(F)F)=NN3c3ccccc3Cl)cc2)c1` (stereo not shown) [Example 252, 1-(2-chloro-phenyl)-5-(3′-hydroxy-biphenyl-4-yl)-3-[di-(trifluoromethyl)-hydroxy-methyl]-4,5-dihydro-1H-pyrazole]: the Emax stood at 62 fold and the pEC50 was 5.63.

The compound `Fc1ccc(N2N=C(C(F)(F)C(F)(F)F)CC2c2ccc(F)c(-c3ccc(Cl)nc3)c2)c(F)c1` (stereo not shown) [Example 130, 1-(2,4-difluoro-phenyl)-5-[4-fluoro-3-(6-chloro-pyridin-3-yl)-phenyl]-3-pentafluoroethyl-4,5-dihydro-1H-pyrazole] had an Emax of 34 fold and a pEC50 of 4.99.

`CSc1cccc(-c2ccc(C3CC(C(O)(C(F)(F)F)C(F)(F)F)=NN3c3ccc(F)cc3F)cc2)c1` (stereo not shown) [Example 369, 1-(2,4-difluoro-phenyl)-5-(3′-methylsulfanyl-biphenyl-4-yl)-3-[di-(trifluoromethyl)-hydroxy-methyl]-4,5-dihydro-1H-pyrazole]: the Emax is reported as 28 fold and the pEC50 is 6.18.

`CSc1ccc(-c2ccnc(C3CC(C(F)(F)C(F)(F)F)=NN3c3ccc(F)cc3F)c2)cc1` (stereo not shown) [Example 173, 1-(2,4-difluoro-phenyl)-5-[4-(4-methylsulfanyl-phenyl)-pyridin-2-yl]-3-pentafluoroethyl-4,5-dihydro-1H-pyrazole] gave an Emax of 102 fold and a pEC50 of 5.60.

As a reminder, the pEC50 is the negative decadic logarithm of the EC50, by convention in mol/L. Read a low pEC50 as a large EC50.
